US20070232657A1, “NOVEL COMPOUNDS” (GLAXO GROUP LIMITED, priority 2006, published 2007)

Experiments:
[1] = system: longitudinal muscle strips from the rat gastric forestomach; experiment: Rat isolated forestomach assay (EFS-evoked contractions)
Protocol: Rat Isolated Forestomach Assay
Longitudinal muscle strips with mucosa partially removed were,obtained from the rat gastric forestomach, and suspended under an initial “load” of 1 g for isometric recording between two platinum ring electrodes, in 5 or 10 ml tissue baths containing Krebs solution bubbled with 5% CO2/95% O2 and maintained at 37° C. Following an equilibration period of 30 min, during which time the tissues were flushed every 15 minutes with fresh Krebs solution, tissues were stimulated with electrical field stimulation (EFS) [50V for 10 ml bath, 25V for 5 ml bath, at 2.5 Hz 0.5 ms pulse duration, for 10 s, every 1 min]. The tissues were left stimulating for at least 30 min. After obtaining consistent responses to EFS, the test compound was added to the bathing solution, each dose left in contact for at least 10 minutes. The % potentiation of contractions to EFS were measured as the area of 4 maximum EFS contractions after addition of compound relative to the area of 4 maximum EFS contractions before addition of the lowest concentration of compound. Data are expressed as means standard error of the mean; n-values are per animal used.

[2] = target: 5HT2b (Homo sapiens, UniProt P41595); experiment: 5HT2b antagonist activity (no method given)
[3] = target: T1, human 5-HT4a receptor (Homo sapiens, UniProt Q13639); experiment: Yeast functional 5-HT4a agonist assay; assay type: cell-based; design: expressed in transfected cells; host or cells: Saccharomyces cerevisiae strain MMY23 (expression cassette integrated at the ura3 locus); conditions: n=9
Source text: Yeast Functional 5-HT4a Agonist Assay
Yeast (Saccharomyces cerevisiae) cells expressing the human 5-HT4a receptor were generated by integration of an expression cassette into the ura3 chromosomal locus of yeast strain MMY23. This cassette consisted of DNA sequence encoding the human 5-HT4a receptor flanked by the yeast glyceraldehyde-3-phosphate dehydrogenase (GPD) promoter to the 5′ end of 5-HT4a and a yeast transcriptional terminator sequence to the 3′ end of 5-HT4a. MMY23 expresses a yeast/mammalian chimeric G-protein alpha subunit in which the C-terminal 5 amino acids of Gpa1 are replaced with the C-terminal 5 amino acids of human Gil (as described in Brown et al. (2000), Yeast 16:11-22). Cells were grown at 30° C. in liquid Synthetic Complete (SC) yeast media (Guthrie and Fink (1991), Methods in Enzymology, Vol.194) lacking uracil, tryptophan, adenine and leucine to late logarithmic phase (approximately 6 OD600/ml).
Agonists were prepared as 10 mM stocks in DMSO. EC50 values (the concentration required to produce 50% maximal response) were estimated using serial dilutions of between 3- and 5-fold (BiomekFX, Beckman) into DMSO. pEC50 corresponds to negative log10 of molar EC50. […] After incubation at 30° C. for 24 hours, fluorescence resulting from degradation of FDGlu to fluorescein due to exoglucanase, an endogenous yeast enzyme produced during agonist-stimulated cell growth, was determined (excitation wavelength: 485 nm; emission wavelength: 535 nm) using a Spectrofluor (Tecan) or similar microtitre plate reader. Fluorescence was plotted against compound concentration and iteratively curve fitted using a four parameter fit to generate a concentration effect value. […]
Where Max[compound X] and Min[compound X] are the fitted maximum and minimum respectively from the concentration effect curve for compound X, and Max[5-HT] and Min[5-HT] are the fitted maximum and minimum respectively from the concentration effect curve for 5-hydroxytryptamine. Equieffective molar ratio (EMR) values were calculated from the equation: EMR=EC50 [compound X]/EC50 [5-HT] […]

[4] = target: T1, human 5-HT4a receptor; experiment: Mammalian functional 5-HT4a agonist assay (HEK-293-MSR-II cells, FLIPR); assay type: cell-based; design: expressed in transfected cells; host or cells: HEK-293-MSR-II cells transduced with BacMam viruses
Protocol: Mammalian Functional 5-HT4a Agonist Assay
Human embryonic kidney cells stably expressing the human macrophage scavenger receptor type II (HEK-293-MSR-II cells) were established in-house (Lysko PG et al., J Pharmacol Exp Ther. 289(3):1277-85). These cells were grown in humidified conditions in Minimum Essential Medium containing 10% fetal calf serum (FCS), 1× non-essential amino acids, 2 mM L-glutamine and 0.4 mg/ml geneticin at 37° C./5% CO2.
BacMam plasmid constructs for the production of viruses for expression in mammalian cells were generated as described (Condreay J P et al., Proc. Natl. Acad. Sci. 96:127-132, Ames R et al., Receptors Channels 10(3-4):117-24). […]
The next day 50 μl Fluo4am dye (at 6 μM in Tyrodes buffer containing 1.5 mM calcium chloride and 2.5mM probenicid) was added to each well and incubated at 37° C./5% CO2 for one hour. […] A Fluorimetric Imaging Plate Reader (FLIPR) was used to add the compounds to the cells (50 μl per well) and to determine peak fluorescence emitted per well over the whole assay period.

T1 sequence (Q13639 1-387 isoform Q13639-2): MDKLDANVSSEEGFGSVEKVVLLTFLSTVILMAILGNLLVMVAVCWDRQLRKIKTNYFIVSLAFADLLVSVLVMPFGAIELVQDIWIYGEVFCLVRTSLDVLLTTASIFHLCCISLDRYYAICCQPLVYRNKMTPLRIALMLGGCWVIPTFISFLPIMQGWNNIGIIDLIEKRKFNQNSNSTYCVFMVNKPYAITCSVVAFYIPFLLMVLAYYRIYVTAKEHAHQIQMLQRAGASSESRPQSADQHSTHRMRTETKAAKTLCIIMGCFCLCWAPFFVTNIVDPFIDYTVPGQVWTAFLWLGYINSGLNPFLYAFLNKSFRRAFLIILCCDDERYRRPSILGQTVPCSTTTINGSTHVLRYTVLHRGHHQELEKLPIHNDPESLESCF
Sequence of 5HT2b (P41595 whole entry, species assumed): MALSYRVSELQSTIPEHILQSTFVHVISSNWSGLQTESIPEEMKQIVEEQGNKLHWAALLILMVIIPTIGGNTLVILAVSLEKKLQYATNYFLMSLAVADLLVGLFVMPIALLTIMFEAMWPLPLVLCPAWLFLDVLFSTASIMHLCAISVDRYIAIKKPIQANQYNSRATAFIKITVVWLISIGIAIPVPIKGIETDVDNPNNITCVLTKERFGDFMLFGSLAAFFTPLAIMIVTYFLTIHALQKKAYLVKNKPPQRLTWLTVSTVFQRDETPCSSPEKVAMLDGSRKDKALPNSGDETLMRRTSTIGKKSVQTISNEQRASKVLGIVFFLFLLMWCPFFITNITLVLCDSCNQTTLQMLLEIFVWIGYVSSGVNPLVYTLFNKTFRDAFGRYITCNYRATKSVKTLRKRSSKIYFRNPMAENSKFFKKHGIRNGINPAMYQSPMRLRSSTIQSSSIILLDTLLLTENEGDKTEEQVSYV

Compound | gastroprokinetic activity ([1]; in vitro, rat forestomach assay) | 5HT2b antagonist activity [2] | % potentiation of contractions to EFS, Mean ([1]; 1 nM E1, n=5) [%] | % potentiation of contractions to EFS, Mean ([1]; 10 nM E1, n=5) [%] | % potentiation of contractions to EFS, Mean ([1]; 100 nM E1, n=5) [%] | % potentiation of contractions to EFS, Mean ([1]; 1 μM E1, n=5) [%] | % potentiation of contractions to EFS, Mean ([1]; 10 μM E1, n=5) [%] | EMR (equieffective molar ratio, EC50 compound/EC50 5-HT) ([3]; relative to 5-HT) | Emax ([3]; relative to 5-hydroxytryptamine, read-out: Mean efficacy (Emax relative to 5-HT)) [%] | EC50 ([3]; yeast cells expressing human 5-HT4a, read-out: Mean pEC50 (converted)) [nM] | EC50 ([4]; HEK-293-MSR-II cells, BacMam 5-HT4a + Gα16, n=12, read-out: mean pEC50 (converted)) [nM] | mean efficacy ([4]; relative to maximal effect of 5-HT, n=12) [%]
Nc1c(Br)cc(C(=O)NCC2CCN(CC3CCOCC3)CC2)c2c1CCCO2 [(A), 5-amino-6-bromo-N-{[1-(tetrahydro-2H-pyran-4-ylmethyl)-4-piperidinyl]methyl}-3,4-dihydro-2H-chromene-8-carboxamide] | exhibits gastroprokinetic activity | exhibit 5HT2b antagonist activity |  |  |  |  |  |  |  |  |  | 
Cl.Nc1c(Br)cc(C(=O)NCC2CCN(CC3CCOCC3)CC2)c2c1CCCO2 [Example E1, 5-Amino-6-bromo-N-{[1-(tetrahydro-2H-pyran-4-ylmethyl)-4-piperidinyl]methyl}-3,4-dihydro-2H-chromene-8-carboxamide hydrochloride] |  |  | 12.89 | 50.62 | 89.57 | 115.46 | 181.32 | 0.281 | 94 | 0.501 | 2.29 | 70
